Where two headings read alike, the source gives them in different places.
Tested on: nucleus of the cell
Type: cell-based
Details: peptide fused to GFP reporter

Substance | localization of GFP reporter chimera in the cell | localization of GFP reporter chimera in the cell (listed as GFP-Ser179Glu mutant chimera)
MYRMKKKDEGSYDL (MYRMKKKDEGSYDLGKKPIYKKAPTNEFYA; from the cytoplasmic domain of syndecan-4 Ser11 of the sequence equals position Ser179 of the full length protein) [SEQ ID NO: 1] | homogenously dispersed in the cells | 
SEQ ID NO: 2 (MYRMKKKDEGEYDLGKKPIYKKAPTNEFYA; from the cytoplasmic domain of syndecan-4 position Ser179 mutated into Glu) | accumulation of the reporter was detected in the nuclei | nuclear accumulation
